Source: patent publication US5672594A, “L-erythrosyl nucleosides” (Genencor International, Inc., priority 1994, dated 1997)
In brackets after ≈: the same amount, converted by molar mass. Like-named read-outs stand apart in the source and are kept apart here.

Columns and labels:
[1] = In vitro growth inhibition/survival, bone marrow control cells (radiometric BACTEC); type: cell-based; conditions: human, continuous exposure (10, 1 and 0.1 μg/ml tested; concentration of this value not given)
Source text: (§1) CELL LINES: Eight different established human cell lines CALU (lung), COLO320 (colon), H578St (breast), HT-29 (colon), MCF-7 (breast), OM-1 (colon), SKLU (lung) and SKMES (lung), and two control cell lines (bone marrow andr fibroblasts) were utilized.
(§2) All cell lines were obtained from the Tumor Cloning Laboratory, Institute for Drug Development, Cancer Therapy and Research Center, San Antonio, Tex. All cell lines grew as monolayers in the appropriate culture medium supplemented with heat-inactivated calf serum. All reagents were obtained from Grand Island Biological Co., Grand Island, N.Y.
(§3) The iv formulations of the compounds of the present invention were prepared with sterile buffered saline and stored at -70° C. until required for testing.
(§4) Following trypsinization, tumor cells were suspended in tissue culture medium and exposed to the antitumor agents continuously at three different concentrations: 10, 1 and 0.1 μg/ml.
(§5) RADIOMETRIC MEASUREMENT OF GROWTH INHIBITION: Growth inhibition was assessed with the BACTEC System 460 (Johnston Laboratories, Towson, Md.) after addition of the antitumor agent in the respective growth medium containing ^14 C-glucose at a final concentration of 2 μCi/ml.
Two mls of the tumor cell suspension containing radioactive glucose were seeded into sterile, disposable 15 ml vials by injection through self-sealing rubber-aluminum caps. […]

CALU (lung) = assay: In vitro growth inhibition of CALU tumor cells (radiometric BACTEC); type: cell-based, human; conditions: for IC50: Homo sapiens
Source text: as §1, §2, §3, §4, §5
(§6) Two mls of the tumor cell suspension containing radioactive glucose were seeded into sterile, disposable 15 ml vials by injection through self-sealing rubber-aluminum caps. […] The seeded vials were then incubated at 37° C. Measurement of the release of ^14 CO2 resulting from the metabolism of ^14 C-glucose were performed on days 6, 9, 12, and 15 in the BACTEC instrument. This instrument flushes the ^14 CO2 containing air out of the vials into an ionization chamber that converts dpm to growth index values. […] Each data point represents triplicate values.
(§7) All compounds were dosed on an equimilimolar basis. […] [formula]

COLO320 (colon) = assay: In vitro growth inhibition of COLO320 tumor cells (radiometric BACTEC); type: cell-based; conditions: Homo sapiens, COLO 320, concentration required to kill 50% of the untreated cancer cells
Source text: as §1
as §2, with “N.Y. […]” for “N.Y.”
(§8) RADIOMETRIC MEASUREMENT OF GROWTH INHIBITION: Growth inhibition was assessed with the BACTEC System 460 (Johnston Laboratories, Towson, Md.) after addition of the antitumor agent in the respective growth medium containing ^14 C-glucose at a final concentration of 2 μCi/ml. […]
(§9) Two mls of the tumor cell suspension containing radioactive glucose were seeded into sterile, disposable 15 ml vials by injection through self-sealing rubber-aluminum caps. […] Chemotherapy sensitivity was calculated by comparing the growth index values of drug-treated vials to that observed in control vials. […]
(§10) The data presented in Table I are compared to results achieved with 5-FU as the control. […] In this regard, a therapeutic ratio for a given compound is typically determined by the following calculation. […]

HS578T (breast) = assay: In vitro growth inhibition of HS578T tumor cells (radiometric BACTEC); type: cell-based; conditions: Homo sapiens, Hs-578T, concentration required to kill 50% of the untreated cancer cells
Source text: as §1
as §2, with “N.Y. […]” for “N.Y.”
as §8, §9, §10

HT29 (colon) = assay: In vitro growth inhibition of HT29 tumor cells (radiometric BACTEC); type: cell-based; conditions: Homo sapiens, HT-29, concentration required to kill 50% of the untreated cancer cells
Source text: as §1
as §2, with “N.Y. […]” for “N.Y.”
as §8, §9, §10

MCF-7 (breast) = assay: In vitro growth inhibition of MCF-7 tumor cells (radiometric BACTEC); type: cell-based, human; conditions: for IC50: Homo sapiens, MCF7
Source text: as §1, §2, §3, §4, §5, §6, §7

OM-1 (colon) = assay: In vitro growth inhibition of OM-1 tumor cells (radiometric BACTEC); type: cell-based; conditions: Homo sapiens, concentration required to kill 50% of the untreated cancer cells
Source text: as §1
as §2, with “N.Y. […]” for “N.Y.”
as §8, §9, §10

SKLU (lung) = assay: In vitro growth inhibition of SKLU tumor cells (radiometric BACTEC); type: cell-based; conditions: Homo sapiens, concentration required to kill 50% of the untreated cancer cells
Source text: as §1
as §2, with “N.Y. […]” for “N.Y.”
as §8, §9, §10

SKMES (lung) = assay: In vitro growth inhibition of SKMES tumor cells (radiometric BACTEC); type: cell-based, human; conditions: for IC50: Homo sapiens
Source text: as §1, §2, §3, §4, §5, §6, §7

[2] = known drug, background; cited from earlier work

## O=c1[nH]cc(F)c(=O)[nH]1 [5-FU, 5-fluorouracil]
[1]
  viability: 38.6%
CALU (lung)
  IC50: < 0.6 µg/mL
COLO320 (colon)
  IC50: < 0.6 µg/mL
HS578T (breast)
  IC50: > 0.6 µg/mL
HT29 (colon)
  IC50: 0.613 µg/mL (≈ 4.71 µM)
MCF-7 (breast)
  IC50: < 0.6 µg/mL
OM-1 (colon)
  IC50: 1.47 µg/mL (≈ 11.3 µM)
SKLU (lung)
  IC50: 1.05 µg/mL (≈ 8.06 µM)
SKMES (lung)
  IC50: < 0.6 µg/mL
[2]
  side effects: nausea, vomiting, diarrhea, leukopenia, thrombocytopenia, alopecia

## O=c1[nH]c(=O)n([C@@H]2OC[C@H](O)[C@@H]2O)cc1F [α-L-erythrofuranosyl-5-fluorouracil]
[1]
  viability: 104%
CALU (lung); CALU, continuous exposure (10, 1 and 0.1 μg/ml tested; concentration of this value not given)
  % SURVIVAL TUMOR: 85.3%
CALU (lung); CALU, concentration required to kill 50% of the untreated cancer cells, read-out: IC 50
  IC50: > 10 µg/mL
MCF-7 (breast); MCF-7, concentration required to kill 50% of the untreated cancer cells, read-out: IC 50
  IC50: > 10 µg/mL
MCF-7 (breast); MCF-7, continuous exposure, concentration of this value not given
  % SURVIVAL TUMOR: 52.7%
SKMES (lung); SKMES, concentration required to kill 50% of the untreated cancer cells, read-out: IC 50
  IC50: > 10 µg/mL
SKMES (lung); SKMES, continuous exposure, concentration of this value not given
  % SURVIVAL TUMOR: 67.4%
